Measurements: patent US7745589B1, “Antibodies and unnatural substrates of prenylation enzymes for use in detecting and isolating prenylated proteins” (University of Kentucky Research Foundation, priority 2005, dated 2010)

Columns and labels:
[1] = test system: anti-AG antibody; assay: Western analysis of H-Ras modified by FTase with aniline analogs, probed with Anti-AG; format: binding, rabbits; conditions: H-Ras reacted with analog by FTase, FIG. 11A
Method: (§1) Cells are harvested by scraping into 300 μl phosphate buffered saline containing protease inhibitor cocktail set 1 (calbiochem), followed by sonication on ice. Protein concentration is determined using a Bradford reagent kit (Pierce). The proteins from the FTase reaction mixtures or cell lysates are then separated using 12% SDS-polyacrylamide gels followed by transfer to nitrocellulose membranes. The membranes are incubated in blocking buffer PCT (see ELISA) for one hour at room temperature, after which the following steps are used: incubation with Anti-AG 1:1000 to 1:10,000 in PCT for one hour; 3×15 minute washes with vigorous shaking in PT buffer (see ELISA); incubation at room temperature one hour with goat anti-rabbit horseradish peroxidase-conjugated secondary antibody (Zymed) at a dilution of 1:20,000 in PCT buffer; and four 15 minute washes with PT buffer. The membranes are then subjected to enhanced chemiluminescence detection by incubation in 20 mL of detection buffer (Pierce Super Signal) for one minute.

[2] = test system: H460 (lung cancer cell line) and MCF7 (breast cancer cell line) cells; assay: Cell labeling with AFOH; format: cell-based; conditions: 30 μM AFOH overnight, FIG. 17B
Method: Plates are coated with poly-L-Lysine and seeded with in Dulbecco's modified Eagle's medium with 5% fetal bovine serum. The cells are then treated with DMSO as a vehicle, or 30 μM AFOH is added and incubated at 37° C. overnight. Medium is then removed and cells are extracted into 500 μL of RIPA buffer containing Protease Inhibitor cocktail I (calbiochem). The supernatant is removed and used for western blotting.
Protein concentration is determined using a Bradford reagent kit (Pierce) with 1:100 dilutions of the cell lysates. The proteins from the GGTaseI reaction mixtures or cell lysates are then separated using 12% SDS-polyacrylamide gels followed by transfer to nitrocellulose membranes. The membranes are incubated in blocking buffer PBS Casein and Tween buffer for one hour at room temperature, after which the following sequential steps are used: incubation with anti-AG or anti-NAG to 1:10,000 in PCT for one hour; 3×15 minute washes with vigorous shaking in PBS Tween buffer; incubation at room temperature one hour with goat anti-rabbit horseradish peroxidase-conjugated secondary antibody (Zymed) at a dilution of 1:20,000 in PCT buffer; and four 15 minute washes with PT buffer. The membranes are then subjected to enhanced chemiluminescene detection by incubation in 20 mL of detection buffer (Pierce Super Signal) for one minute.

[3] = target: T1, FTase (Homo sapiens, UniProt P49354+P49356); conditions: in vitro; cited from earlier work
[4] = target: T1, FTase; assay: FTase catalyzed in vitro modification of RDJ2 and H-Ras; format: biochemical; conditions: bacterially expressed proteins, intact Ca1a2X motifs
Method: 2 μg of recombinant bacterially expressed RDJ2 is incubated with 20 μM AGPP or FPP and 5 μg FTase in 50 μL of TrisHCl buffer (pH=7.4). […] The reactions are incubated for 30 min at 37° C., boiled with SDS and PAGE performed using the protein concentrations indicated on the blots.

[5] = test system: GGTaseI; assay: GGTaseI protein substrate modification of H-Ras; format: biochemical; conditions: relatively large amount of GGTaseI, Western blot FIG. 17A
[6] = target: GGTaseI (Homo sapiens, UniProt P49354+P53609); assay: GGTaseI continuous spectrofluorometric assay with dansylated-GCaaX peptides; format: biochemical; conditions: for Substrate for GGTaseI with CVIL peptide: dansylated-GCVIL peptide; for Substrate for GGTaseI with CVIM peptide: dansylated-GCVIM peptide; for Substrate for GGTaseI: peptide not specified
Method: The kinetic constants Km^peptide and kcat with GGPP, and the analogs with each peptide are determined in triplicate measurements using a continuous spectrofluorometric assay adapted for a 96-well plate. The following assay components are assembled in individual wells of a 96-well plate and incubated at 30° C. for 20 minutes: 180 μL of assay butler (52 mM Tris-HCl, 12 mM MgCl2, 12 μM ZnCl2 pH 7.4), 40 μL of detergent (0.125% n-dodecyl-β-D-maltoside in assay buffer), 40 μL of reducing agent (50 mM DTT in assay buffer) 20 μL of GGPP or analog (200 μM in 25 mM NH4HCO3) and 20 μL of N-dansyl-GCaaX peptide (variable concentration). Fluorescence is detected using a time based scan at 30° C. for 120 minutes. The velocity of each reaction is determined by converting the rate of increase in fluorescence intensity units (FLU/s) to μM/s with equation 1. vi=(R·P)/(FMAX−FMIN) Equation 1
Where vi is the velocity of the reaction in μM/s. R is the rate of the reaction in FLU/s. P is equal to the concentration of modified product in μM (see below). FMAX is the fluorescence intensity of fully modified product. FMIN is the fluorescence of a reaction mixture that contained 20 μL of assay buffer in the place of GGTaseI. Complete modification of peptides is assumed when fluorescence stabilized for more than 10 minutes and is confirmed by RP-HPLC analysis of the reaction mixture.
Final analysis peptide concentrations are chosen based on preliminary determination of the Km^peptide with 0.5, 1, 5 and 10 μM dansyl-GCaaX concentrations (see below). The final analysis used 8 peptide concentrations which are: ⅙, ⅕, ¼, ½, ¾, 1, 2, and 3 times the estimated Km^peptide. The reaction is then initiated by the addition of 20 μL of GGTaseI (final 10 nM). Fluorescence enhancement is determined as described above.
Complete modification of peptides is assumed when fluorescence stabilized for more than 10 minutes and is confirmed by RP-HPLC analysis of the reaction mixture. […] Alternatively the extent of input peptide modified is determined by RP-HPLC analysis of the dansyl moiety peak absorbance corresponding to the unmodified and modified peptides. The percent of modified peptide relative to the total input peptide is used to calculate the concentration of product in the mixture.
The velocities of the reactions are plotted against the concentration of peptide and are fit to the Michaelis-Menten equation (Equation 2) to give the apparent kcat (appkcat) and Km^peptide (appKmpeptide) values. Where et is the total enzyme concentration and [Pep] is the total input peptide. The kcat/Km^peptide value is derived from a Lineweaver-Burke plot of the same data points. vi/et=(appkcat*[Pep])/(appKm^peptide+[Pep]) Equation 2

[7] = test system: human embryonic kidney (HEK-293) cells; assay: Acute cytoxicity of anilinogeraniol in HEK-293 cells; format: cell-based; conditions: up to 100 μM, three days, relative to controls
From the text: Farnesol, geranylgeraniol and a number of farnesol analogues become incorporated into cellular proteins when added to the culture media of growing cells. See e.g., Crick, et al. (1995) Biochem Biophys Res Commun 211, 590-9; Crick, et al. (1997) Biochem Biophys Res Commun 237, 483-7. These compounds are thought to traverse the plasma membrane and act as a substrate for sequential kinase reactions to give FPP, GGPP or the diphosphate analogue which can be then be utilized by FTase or GGTaseI to appropriately modify cellular proteins. Thai, et al. (1999) Proc Natl Acad Sci U S A 96, 13080-5. The kinases involved in the phosphorylation reactions have been characterized in plants, but not in mammalian cells. […] See Chehade, et al. (2000) J. Org. Chem. 65, […]. It is thought that nilinogeraniol might also cross the plasma membrane of cells, be converted to the diphosphate and become incorporated into proteins by FTase. However, it is also possible that anilinogeraniol might be toxic to mammalian cells. Accordingly, the acute cytoxicity of anilinogeraniol is examined by incubating human embryonic kidney (HEK-293) cells with up to 100 μM anilinogeraniol for three days.

[8] = test system: HEK-293 cells; assay: AGOH labeling and FTI inhibition of label in HEK-293 cells; format: cell-based, human
Method: Plates are coated with poly-L-Lysine and seeded with HEK-cells in Dulbecco's modified Eagle's medium with 5% fetal bovine serum. Cells are incubated in medium containing 30 μM lovostatin and 10 μM GGOH for 24 hrs. The media is poured off then replenished with media without lovostatin and GGOH and are treated with 3 μM FTI-277 (calbiochem), 20 μM GGTI-2147 (calbiochem) or no inhibitor and incubated at 37° C. for 1 hour. DMSO as a vehicle, or 100 μM AGOH is then added and incubated at 37° C. for two hours. Medium is then removed and cells are extracted into 300 μL PBS containing Protease Inhibitor cocktail set 1 (Calbiochem). The samples are sonicated and centrifuged for 5 minutes. The supernatant is removed and used for western blotting.
Cells are harvested by scraping into 300 μl phosphate buffered saline containing protease inhibitor cocktail set 1 (calbiochem), followed by sonication on ice. Protein concentration is determined using a Bradford reagent kit (Pierce). The proteins from the FTase reaction mixtures or cell lysates are then separated using 12% SDS-polyacrylamide gels followed by transfer to nitrocellulose membranes. […]

[9] = test system: HEK-cells; assay: AGOH incorporation into unblocked cells; format: cell-based, human; conditions: 30 μM AGOH, no lovastatin blockade
Method: Plates are coated with poly-L-Lysine and seeded with HEK-cells in Dulbecco's modified Eagle's medium with 5% fetal bovine serum. The cells ware then treated with DMSO as a vehicle, or 30 μM AGOH 5a is then added and incubated at 37° C. for the indicated time points. Medium is then removed and cells are extracted into 300 μL PBS containing Protease Inhibitor cocktail set 1 (Calbiochem). The samples are sonicated and centrifuged for 5 minutes. The supernatant is removed and used for western blotting.
as §1, with “The membranes are then subjected to enhanced chemiluminescence detection by incubation in 20 mL of detection buffer (Pierce Super Signal) for one minute.” left out

[10] = test system: anti-NAG antibodies; assay: Western analysis of H-Ras modified by FTase with aniline analogs, probed with Anti-NAG; format: binding, rabbits; conditions: H-Ras reacted with analog by FTase, FIG. 11B

meta-bromo-anilinogeranyl diphosphate [mBr-AGPP]
Recognition of analog-modified H-Ras by anti-AG antibody [1]: able to cross-react

meta-methyl-anilinogeranyl diphosphate [mMe-AGPP]
Recognition of analog-modified H-Ras by anti-AG antibody [1]: able to cross-react

meta-fluoro-anilinogeranyl diphosphate [mF-AGPP]
Recognition of analog-modified H-Ras by anti-AG antibody [1]: able to cross-react

CC(=CCO)CCC=C(C)CCC=C(C)CNc1ccccc1 [AFOH, Anilinofarnesiol]
AFOH incorporation into cellular proteins [2]: does appear to be incorporated into proteins

C/C(=C\COP(=O)(O)OP(=O)(O)O)CC/C=C(\C)CNc1ccccc1 [AGPP, anilinogeranyl diphosphate]
Transferable by FTase to a CVLS substrate [3]: transferable
FTase catalyzed in vitro modification of RDJ2 and Q61L H-Ras [4]: provided lipid thioether-linked proteins

CC(=CCCC(C)=CCOP(=O)(O)OP(=O)(O)O)CCC=C(C)CNc1ccc([N+](=O)[O-])cc1 [NAFPP, pNO2-anilinofarnesyl diphosphate]
Incorporation of analog into H-Ras in vitro [5]: incorporated into the protein
Substrate for GGTaseI with CVIL peptide [6]: are substrates when CVIL is the target
Substrate for GGTaseI with CVIM peptide [6]: none of the AGPP analogs or NAFPP are substrates
Substrate for GGTaseI [6]: both substrates

C/C(=C\CO)CC/C=C(\C)CNc1ccccc1 [AGOH, Anilinogeranyl alcohol]
Cell growth [7]: no decrease in cell growth
Morphological changes [7]: no morphological changes
Anilinogeranyl modified proteins detected with Anti-AG in cell extracts ([8]; cells blocked with lovostatin and treated with GGOH, 100 μM AGOH, FIG. 12): numerous anilinogeranyl modified proteins
Competition with endogenous pools of FPP [9]: competitive with the endogenous pools of FPP
Onset of anilinogeranyl incorporation into proteins ([9]; FIG. 14): within two hours

CC(C)=CCC/C(C)=C/CC/C(C)=C/CC/C(C)=C/COP(=O)(O)OP(=O)(O)O [GGPP, geranylgeranyl diphosphate, reference compound]
Substrate for GGTaseI with CVIL peptide [6]: confirmed to be a substrate
Substrate for GGTaseI with CVIM peptide [6]: confirmed to be a substrate

COC(=O)[C@H](CCSC)NC(=O)c1ccc(NC[C@@H](N)CS)cc1-c1ccccc1 [FTI-277, reference compound]
Effect of inhibitor on anilinogeranyl modification of cellular proteins ([8]; cells incubated with AGOH, 3 μM FTI-277 or 20 μM GGTI-2147): no anilinogeranyl modified proteins are detected

para-cyano-anilinogeranyl diphosphate [pCN-AGPP]
Recognition of analog-modified H-Ras by anti-NAG antibodies [10]: recognized

CC(=CCC/C(C)=C/COP(=O)(O)OP(=O)(O)O)CNc1ccc(F)cc1 [pF-AGPP, para-fluoro-anilinogeraniol diphosphate]
Recognition of analog-modified H-Ras by anti-AG antibody [1]: able to cross-react

para-methyl-anilinogeranyl diphosphate [pMe-AGPP]
Recognition of analog-modified H-Ras by anti-AG antibody [1]: able to cross-react

meta-cyano-anilinogeranyl diphosphate [mCN-AGPP]
Recognition of analog-modified H-Ras by anti-NAG antibodies [10]: recognized
Recognition of analog-modified H-Ras by anti-AG antibody [1]: able to cross-react

para-bromo-anilinogeranyl diphosphate [pBr-AGPP]
Recognition of analog-modified H-Ras by anti-NAG antibodies [10]: recognized
Recognition of analog-modified H-Ras by anti-AG antibody [1]: able to cross-react

anilinofarnesyl diphosphate [AFPP]
Incorporation of analog into H-Ras in vitro [5]: incorporated into the protein
Substrate for GGTaseI [6]: both substrates

ortho-fluoro-anilinogeranyl diphosphate [oF-AGPP]
Recognition of analog-modified H-Ras by anti-AG antibody [1]: able to cross-react

C/C(=C\COP(=O)(O)OP(=O)(O)O)CC/C=C(\C)CNc1ccc([N+](=O)[O-])cc1 [NAGPP, para-nitro-anilinogeranyl diphosphate]
FTase catalyzed in vitro modification of RDJ2 and Q61L H-Ras [4]: provided lipid thioether-linked proteins
